The results in this text go back to patent US10800770B1, “Chroman derivatives having estrogen receptor degradation activity and uses thereof” (ACCUTAR BIOTECHNOLOGY INC., priority 2019, dated 2020).

Where only a bound is given, the exact number is not on record here.

The target of the assay is T1, ERα (Homo sapiens, UniProt P03372).
T1 construct: endogenous in cells; host or cells: T47D
T1 sequence (P03372 1-595): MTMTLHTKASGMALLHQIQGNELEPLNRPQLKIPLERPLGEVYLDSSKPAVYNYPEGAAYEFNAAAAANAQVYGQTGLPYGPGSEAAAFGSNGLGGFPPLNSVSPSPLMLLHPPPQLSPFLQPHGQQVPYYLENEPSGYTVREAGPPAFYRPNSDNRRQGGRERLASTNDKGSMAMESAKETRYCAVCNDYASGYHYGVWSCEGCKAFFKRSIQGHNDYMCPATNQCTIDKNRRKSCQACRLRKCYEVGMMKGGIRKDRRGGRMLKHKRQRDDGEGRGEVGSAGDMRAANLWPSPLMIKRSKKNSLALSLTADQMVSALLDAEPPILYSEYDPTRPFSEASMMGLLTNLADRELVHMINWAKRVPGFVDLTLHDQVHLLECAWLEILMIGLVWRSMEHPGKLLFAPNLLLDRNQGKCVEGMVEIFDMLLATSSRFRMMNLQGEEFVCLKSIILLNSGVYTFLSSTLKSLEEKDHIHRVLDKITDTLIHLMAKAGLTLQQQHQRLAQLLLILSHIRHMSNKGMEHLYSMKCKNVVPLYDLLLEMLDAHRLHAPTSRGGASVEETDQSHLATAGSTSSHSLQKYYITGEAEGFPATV
The assay can be described thus: ERα degradative activity in T47D cells (Western blot, 6 hours after administration). The assay is classed as cell-based. The conditions noted are these: T47D cell line, ERα degradation. The procedure:
T47D cells were plated in 24-well plates at 1.5×10^5 cells/well in the RPMI growth medium containing 10% FBS and 1× Penicillin Streptomycin. MCF7 cells were plated in 24-well plates at 1.5×10^5 cells/well in the DMEM growth medium containing 10% FBS and 1× Penicillin Streptomycin. CAMA1 cells were plated in 24-well plates at 2×10^5 cells/well in the RPMI growth medium containing 20% FBS and 1× Penicillin Streptomycin. They were then incubated at 37° C. overnight. The following day, the test compound was administered to the cells by using 1000× compound stock solution prepared in DMSO at various concentrations. After administration of the compound, the cells were then incubated at 37° C. for 6 hours.
Upon completion, the cells were washed with PBS and protein was collected in Laemmli sample buffer (1×; VWR International). Proteins in cell lysate were separated by SDS-PAGE and transferred to Odyssey nitrocellulose membranes (Licor) with Iblot® dry blotting transfer system (ThermoFisher). Nonspecific binding was blocked by incubating membranes with Intercept Blocking Buffer (Licor) for 1 hour at room temperature with gentle shaking. The membranes were then incubated overnight at 4° C. with Primary antibodies rabbit anti-ER (Cell Signaling, 8644) and mouse anti-GAPDH (1:5,000, Santa Cruz Biotechnology, sc-47724) diluted in Intercept Blocking Buffer containing 0.1% Tween 20. After washing 3 times with TBS-T, the membranes were incubated with IRDye® 800CW goat anti-mouse IgG (1:20,000, Licor) or IRDye® 800CW goat anti-rabbit IgG (1:20,000, Licor) for 1 hour. After TBS-T washes, membranes were rinsed in TBS and scanned on Odyssey® CLx Imaging System (Licor). The bands were quantified using Image Studio™ Software (Licor).
On the technique in general: In western blotting, separated proteins are transferred to a membrane and probed.
As usually defined, the DC50 is the midpoint of the concentration-degradation curve. As for `Cc1cc([C@H]2COc3cc(O)ccc3[C@H]2c2ccc(N3CCC(CN4CCN(c5ccc6c(c5)CN([C@H]5CCC(=O)NC5=O)C6=O)CC4)CC3)c(F)c2)ccc1F` [Compound 60, cis-(S)-3-(5-(4-((1-(2-fluoro-4-(3-(4-fluoro-3-methylphenyl)-7-hydroxychroman-4-yl)phenyl)piperidin-4-yl)methyl)piperazin-1-yl)-1-oxoisoindolin-2-yl)piperidine-2,6-dione], the DC50 came out at 6.5 nM. This lies in the single-digit nanomolar range.
For `O=C1CC[C@H](N2Cc3cc(N4CCN(CC5CCN(c6ccc([C@@H]7c8ccc(O)cc8OC[C@@H]7c7ccccc7)cc6)CC5)CC4)ccc3C2=O)C(=O)N1` [Compound 33, (S)-3-(5-(4-((1-(4-((3S,4R)-7-hydroxy-3-phenylchroman-4-yl)phenyl)piperidin-4-yl)methyl)piperazin-1-yl)-1-oxoisoindolin-2-yl)piperidine-2,6-dione] the value was 0.3 nM.
The compound `O=C1CC[C@H](N2C(=O)c3ccc(N4CCN(CC5CCN(c6ccc([C@@H]7c8ccc(O)cc8OCC7c7ccccc7)cc6F)CC5)CC4)cc3C2=O)C(=O)N1` (stereo in doubt) [Compound 87, cis-2-(2,6-dioxo-piperidin-3-yl)-5-(4-((1-(2-fluoro-4-(7-hydroxy-3-phenylchroman-4-yl)phenyl)piperidin-4-yl)methyl)piperazin-1-yl)isoindoline-1,3-dione] had a DC50 of 12.6 nM.
With `COc1cc([C@H]2COc3cc(O)ccc3[C@H]2c2ccc(N3CCC(CN4CCN(c5ccc6c(c5)CN([C@H]5CCC(=O)NC5=O)C6=O)CC4)CC3)cc2)ccc1F` (relative stereo) [Compound 63, cis-(S)-3-(5-(4-((1-(4-(3-(4-fluoro-3-methoxyphenyl)-7-hydroxychroman-4-yl)phenyl)piperidin-4-yl)methyl)piperazin-1-yl)-1-oxoisoindolin-2-yl)piperidine-2,6-dione] the figure was 2.1 nM; with `COc1cccc([C@H]2COc3cc(O)ccc3[C@H]2c2ccc(N3CCC(CN4CCN(c5cc6c(cc5F)C(=O)N([C@H]5CCC(=O)NC5=O)C6)CC4)CC3)cc2)c1` (relative stereo) [Compound 74, cis-(S)-3-(6-fluoro-5-(4-((1-(4-(7-hydroxy-3-(3-methoxy-phenyl)chroman-4-yl)phenyl)piperidin-4-yl)methyl)piperazin-1-yl)-1-oxoisoindolin-2-yl)piperidine-2,6-dione], 7.3 nM.
`O=C1CC[C@H](N2Cc3cc(N4CCN(CC5CCN(c6ccc([C@@H]7c8ccc(O)cc8OCC7c7ccccc7)cc6F)CC5)CC4)ccc3C2=O)C(=O)N1` (relative stereo) [Compound 85, cis-(S)-3-(5-(4-((1-(2-fluoro-4-(7-hydroxy-3-phenylchroman-4-yl)phenyl)piperidin-4-yl)methyl)piperazin-1-yl)-1-oxoisoindolin-2-yl)piperidine-2,6-dione] registered a DC50 of 3 nM. This DC50 lies about 2.4-fold lower than the previous one.
For `O=C1CC[C@H](N2Cc3cc(N4CCN(CC5CCN(c6ccc([C@@H]7c8ccc(O)cc8OC[C@@H]7c7ccccc7)cc6F)CC5)CC4)ccc3C2=O)C(=O)N1` [Compound 86, (S)-3-(5-(4-((1-(2-fluoro-4-((3S,4R)-7-hydroxy-3-phenylchroman-4-yl)phenyl)piperidin-4-yl)methyl)piperazin-1-yl)-1-oxoisoindolin-2-yl)piperidine-2,6-dione] the value was 0.5 nM.
As for `Cc1cccc([C@H]2COc3cc(O)ccc3C2c2ccc(N3CCC(CN4CCN(c5ccc6c(c5)CN([C@H]5CCC(=O)NC5=O)C6=O)CC4)CC3)c(F)c2)c1` (relative stereo) [Compound 52, cis-(S)-3-(5-(4-((1-(2-fluoro-4-(7-hydroxy-3-(m-tolyl)chroman-4-yl)phenyl)piperidin-4-yl)methyl)piperazin-1-yl)-1-oxoisoindolin-2-yl)piperidine-2,6-dione], half-maximal degradation (DC50) was put at 5.6 nM.
`O=C1CC[C@H](N2Cc3cc(N4CCN(CC5CCN(c6ccc([C@@H]7c8ccc(O)cc8OC[C@@H]7c7ccccc7)cc6F)CC5)CC4)c(F)cc3C2=O)C(=O)N1` [Compound 41, (S)-3-(6-fluoro-5-(4-((1-(2-fluoro-4-((3S,4R)-7-hydroxy-3-phenylchroman-4-yl)phenyl)piperidin-4-yl)methyl)piperazin-1-yl)-1-oxoisoindolin-2-yl)piperidine-2,6-dione] showed a DC50 of 4 nM.
For `O=C1CC[C@H](N2Cc3cc(N4CCN(CC5CCN(c6ccc([C@H]7c8ccc(O)cc8OC[C@H]7c7ccccc7)cc6)CC5)CC4)ccc3C2=O)C(=O)N1` [Compound 34, (S)-3-(5-(4-((1-(4-((3R,4S)-7-hydroxy-3-phenylchroman-4-yl)phenyl)piperidin-4-yl)methyl)piperazin-1-yl)-1-oxoisoindolin-2-yl)piperidine-2,6-dione] the value was greater than 100 nM.
In turn, `O=C1CCC(N2C(=O)c3ccc(N4CCN(CC5CCN(c6ccc(C7c8ccc(O)cc8OC[C@@H]7c7ccccc7)cc6)CC5)CC4)cc3C2=O)C(=O)N1` (stereo in doubt) [Compound 36, cis-2-(2,6-dioxopiperidin-3-yl)-5-(4-((1-(4-(7-hydroxy-3-phenylchroman-4-yl)phenyl)piperidin-4-yl)methyl)piperazin-1-yl)isoindoline-1,3-dione] displayed a DC50 greater than 10 nM.
For `O=C1CC[C@H](N2Cc3cc(N4CCN(CC5CCN(c6ccc([C@@H]7c8ccc(O)cc8OCC7c7ccc(F)c(F)c7)cc6F)CC5)CC4)ccc3C2=O)C(=O)N1` (relative stereo) [Compound 84, cis-(S)-3-(5-(4-((1-(4-(3-(3,4-difluorophenyl)-7-hydroxychroman-4-yl)-2-fluoro-phenyl)piperidin-4-yl)methyl)piperazin-1-yl)-1-oxoisoindolin-2-yl)piperidine-2,6-dione] the value was 9.3 nM; for `COc1ccc(C2COc3cc(O)ccc3[C@H]2c2ccc(N3CCC(CN4CCN(c5ccc6c(c5)CN([C@H]5CCC(=O)NC5=O)C6=O)CC4)CC3)cc2)cc1` (relative stereo) [Compound 89, cis-(S)-3-(5-(4-((1-(4-(7-hydroxy-3-(4-methoxy-phenyl)chroman-4-yl)phenyl)piperidin-4-yl)methyl)piperazin-1-yl)-1-oxoisoindolin-2-yl)piperidine-2,6-dione], 0.7 nM.
As for `O=C1CC[C@H](N2Cc3cc(N4CCN(CC5CCN(c6ccc([C@H]7c8ccc(O)cc8OC[C@H]7c7ccccc7)cc6F)CC5)CC4)ccc3C2=O)C(=O)N1` [Compound 45, (S)-3-(5-(4-((1-(2-fluoro-4-((3R,4S)-7-hydroxy-3-phenylchroman-4-yl)phenyl)piperidin-4-yl)methyl)piperazin-1-yl)-1-oxoisoindolin-2-yl)piperidine-2,6-dione], the DC50 was greater than 100 nM.
For `COc1ccc(C2COc3cc(O)ccc3[C@H]2c2ccc(N3CCC(CN4CCN(c5cc6c(cc5F)C(=O)N([C@H]5CCC(=O)NC5=O)C6)CC4)CC3)cc2)cc1` (relative stereo) [Compound 90, cis-(S)-3-(6-fluoro-5-(4-((1-(4-(7-hydroxy-3-(4-methoxy-phenyl)chroman-4-yl)phenyl)piperidin-4-yl)methyl)piperazin-1-yl)-1-oxoisoindolin-2-yl)piperidine-2,6-dione] the value was 9.6 nM; for `O=C1CC[C@H](N2Cc3cc(N4CCN(CC5CCN(c6ccc([C@@H]7c8ccc(O)cc8OC[C@@H]7c7ccccc7)cc6)CC5)CC4)c(F)cc3C2=O)C(=O)N1` [Compound 42, (S)-3-(6-fluoro-5-(4-((1-(4-((3S,4R)-7-hydroxy-3-phenylchroman-4-yl)phenyl)piperidin-4-yl)methyl)piperazin-1-yl)-1-oxoisoindolin-2-yl)piperidine-2,6-dione], 1.1 nM; for `O=C1CC[C@H](N2Cc3cc(N4CCN(CC5CCN(c6ccc(C7c8ccc(O)cc8OC[C@@H]7c7ccccc7)cc6)CC5)CC4)ccc3C2=O)C(=O)N1` (relative stereo) [Compound 32, cis-(S)-3-(5-(4-((1-(4-(7-hydroxy-3-phenylchroman-4-yl)phenyl)piperidin-4-yl)methyl)piperazin-1-yl)-1-oxoisoindolin-2-yl)piperidine-2,6-dione], 2.4 nM.
